For the experiment, the system named is Pseudomonas fluorescens. Description: Bactericidal activity of phenol oxidizing enzyme plus enhancing agent, surviving cells enumerated by Malthus (Examples 1 and 3). It is filed as cell-based. The following applies: for Bactericidal activity: 20 min, 40° C.; for Cell reduction: enhancing agent 0.2 mM, hydrogen peroxide 0.5 mM, rCiP 3 POXU/ml, total kill. The method, then: Antimicrobial activity was evaluated in 0.05 M MES-buffer (Sigma M8250) (pH 6) or 0.05 HEPES-buffer (Sigma H3375) (pH 8); buffers were sterilised by filter sterilisation. The antimicrobial activity was determined against Pseudomonas fluorescens (Gram et al. 1990, International Journal of Food Microbiology 10: 303-316) and Staphylococcus epidermidis (DSM 20042). Cells were grown in Tryptone Soya Broth (Oxoid CM129) at 30° C. (S. epidermidis) or 25° C. (P. fluorescens) for 24 h and diluted in the MES-buffer to a final cell concentration of approximately 10^6 cfu/ml. The cell suspensions were mixed with rCiP (3 POXU/ml), enhancing agent (0.2 mM) and hydrogen peroxide (0.5 mM) for 20 min at 40° C. The bactericidal activity was determined by incubation in Malthus. Detection times measured by the Malthus instrument were converted to cfu/ml by a calibration curve. Either direct or Indirect Malthus measurements were used when enumerating total survival cells (Malthus Flexi M2060, Malthus Instrument Limited). By the direct measurements, the cell metabolism was determined by conductance measurements in the growth substrate. By the indirect measurements, 3 ml of growth medium was transferred to the outer chamber of the indirect Malthus cells, and 0.5 ml of sterile KOH (0.1 M) was transferred to the inner chamber. The cell suspensions were after enzyme treatment transferred to the outer chamber of the Malthus cell. As cells are growing in the outer chamber they produce CO2 which will dissolve in the KOH in the inner chamber and thereby change the conductance of the KOH. The amount of CO2 formed by the respiring cells surviving the enzyme treatment was used for estimating the number of viable cells. When the conductance change is measurable by the Malthus, a detection time (dt) will be recorded. The dt's were converted to colony counts by use of a calibration curve relating cfu/ml to dt (Johansen et al. 1995. Journal of Applied Bacteriology 78:297-303, Johansen et al. 1997, Applied and Environmental Microbiology 63:3724-3728). Antibacterial activity of Coprinus cinereus peroxidase (rCiP), Polyporus pinsitus laccase (rPpL), Coprinus cinereus laccase (rCcL) and Rhizoctonia solani laccase (rRsL) (as described in WO 95/07988) was determined with different enhancing agents at pH 6 and 8 (buffers; see Example 1). The rCiP was combined with 0.5 mM hydrogen peroxide. Antimicrobial activity of rCiP and rPpL was determined against Pseudomonas fluorescens (Gram et al. 1990, International Journal of Food Microbiology 10:303-316), whereas antimicrobial activity of rCcL and rRsL was determined against Pseudomonas aeruginosa (ATCC 10145). The bactericidal activity was determined as described in example 1. The results are shown as the reduction in living cell number. Thus, a reduction of 4 correspond to a 4 log reduction of living cells e.g. from 10^6 CFU/ml to 10^2 CFU/ml.

Structures are written as SMILES.

`CC(=O)N(O)c1ccccc1` [N-hydroxyacetanilide]: the Bactericidal activity entry by setting is: (combined system: enhancing agent 0.2 mM, hydrogen peroxide 0.5 mM and rCiP 3 POXU/ml) “total kill”; (enhancing agent (0.2 mM) combined with hydrogen peroxide (0.5 mM), no enzyme) “No bactericidal activity”; (enhancing agent alone (0.2 mM), no enzyme, no hydrogen peroxide) “No bactericidal activity”. The Cell reduction result is, setting by setting: (pH 6) “approximately 10^6 CFU/ml”; (pH 8) “approximately 10^6 CFU/ml”.

The values are drawn from patent US6592867B2, “Antimicrobial composition containing an oxidoreductase and an enhancer of the N-hydroxyanilide-type” (Novozymes A/S, priority 1998, dated 2003).
